30 compounds from patent US20060063759A1, “Tricyclic steroid hormone nuclear receptor modulators” (priority 2002, published 2006) can be followed below.

The structures appear in SMILES notation. pKi: −log10 of the molar value.

Broadly, the pKi is the negative decadic logarithm of the Ki, by convention in mol/L.

One experiment addresses T1, human MR (Homo sapiens, UniProt P08235).
T1 construct: The full length human MR gene is cloned from a human kidney or human brain cDNA library; His tag from the pAcHLT vector (own knowledge); made in house; host or cells: Sf9 insect cells (baculovirus, pAcHLT transfer vector)
T1 sequence (P08235 1-984): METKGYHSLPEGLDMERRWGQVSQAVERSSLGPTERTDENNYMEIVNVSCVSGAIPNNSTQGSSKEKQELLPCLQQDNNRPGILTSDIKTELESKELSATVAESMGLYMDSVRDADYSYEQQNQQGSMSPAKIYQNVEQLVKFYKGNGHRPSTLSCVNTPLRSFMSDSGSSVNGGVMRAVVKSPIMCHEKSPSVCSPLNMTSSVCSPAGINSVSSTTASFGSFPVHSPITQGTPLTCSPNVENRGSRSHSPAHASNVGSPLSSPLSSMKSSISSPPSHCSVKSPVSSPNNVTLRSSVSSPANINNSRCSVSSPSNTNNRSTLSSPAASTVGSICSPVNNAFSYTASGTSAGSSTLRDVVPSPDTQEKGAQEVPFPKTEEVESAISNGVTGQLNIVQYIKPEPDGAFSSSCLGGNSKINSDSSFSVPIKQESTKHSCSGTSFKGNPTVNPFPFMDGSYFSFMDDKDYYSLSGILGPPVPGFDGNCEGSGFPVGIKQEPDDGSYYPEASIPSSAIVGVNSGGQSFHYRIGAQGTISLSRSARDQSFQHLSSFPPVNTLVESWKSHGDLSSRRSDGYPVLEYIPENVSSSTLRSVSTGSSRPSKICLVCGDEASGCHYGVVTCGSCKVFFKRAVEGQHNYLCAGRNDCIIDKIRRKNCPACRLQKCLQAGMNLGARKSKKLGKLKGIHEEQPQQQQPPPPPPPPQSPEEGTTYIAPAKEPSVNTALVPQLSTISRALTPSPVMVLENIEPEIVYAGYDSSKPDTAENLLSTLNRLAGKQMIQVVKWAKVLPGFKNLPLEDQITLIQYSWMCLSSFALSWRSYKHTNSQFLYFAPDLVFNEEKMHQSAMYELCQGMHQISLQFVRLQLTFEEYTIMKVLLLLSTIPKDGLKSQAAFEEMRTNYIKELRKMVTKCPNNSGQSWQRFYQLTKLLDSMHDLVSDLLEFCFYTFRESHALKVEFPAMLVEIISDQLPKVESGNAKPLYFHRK
Put plainly: Mineralocorticoid Receptor Binding Assay ([3H]-aldosterone). The following applies: [3H]-aldosterone binding, human MR expressed in Sf9 cells; read-out: MR Ki. The method, boiled down:
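Receptor source: freeze-thaw lysate of baculovirus-infected Sf9 cells carrying full-length human MR, 20-25 μg protein. Incubation ~16 h at 4 °C with shaking, pH 7.5 buffer containing 30 mM sodium molybdate and 10% glycerol.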

Another experiment concerns the target T2, glucocorticoid receptor (Homo sapiens, UniProt P04150).
T2 construct: containing 50-200 ug of A549 cell extract and 1.86 nM [^3H]-dexamethasone; host or cells: A549 human lung epithelial cells (sonicated cell extract)
T2 sequence (P04150 1-777): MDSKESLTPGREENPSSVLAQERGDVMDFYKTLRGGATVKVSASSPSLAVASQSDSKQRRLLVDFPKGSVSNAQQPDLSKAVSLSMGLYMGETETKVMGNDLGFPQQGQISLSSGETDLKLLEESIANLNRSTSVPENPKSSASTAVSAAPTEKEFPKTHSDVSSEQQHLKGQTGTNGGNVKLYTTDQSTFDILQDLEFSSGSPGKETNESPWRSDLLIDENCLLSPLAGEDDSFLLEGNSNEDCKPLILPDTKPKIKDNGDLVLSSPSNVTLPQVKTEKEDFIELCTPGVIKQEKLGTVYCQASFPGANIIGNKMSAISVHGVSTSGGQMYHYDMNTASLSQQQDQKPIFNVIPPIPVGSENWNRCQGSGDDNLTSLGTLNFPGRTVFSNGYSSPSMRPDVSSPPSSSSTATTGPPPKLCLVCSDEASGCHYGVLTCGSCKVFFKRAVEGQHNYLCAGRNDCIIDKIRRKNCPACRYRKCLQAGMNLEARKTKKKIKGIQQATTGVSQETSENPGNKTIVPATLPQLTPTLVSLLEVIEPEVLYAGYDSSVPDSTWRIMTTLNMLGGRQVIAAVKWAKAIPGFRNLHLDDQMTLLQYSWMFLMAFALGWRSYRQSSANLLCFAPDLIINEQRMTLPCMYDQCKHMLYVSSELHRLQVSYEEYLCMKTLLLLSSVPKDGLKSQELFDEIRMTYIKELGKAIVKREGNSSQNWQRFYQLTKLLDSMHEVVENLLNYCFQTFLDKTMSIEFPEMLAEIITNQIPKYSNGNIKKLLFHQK
The experiment can be described thus: Glucocorticoid Receptor Binding Assay ([3H]-dexamethasone, A549 cell extract). The following applies: [3H]-dexamethasone binding, read-out: GR Ki. An outline of the steps:
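Displacement of [3H]-dexamethasone (1.86 nM) from glucocorticoid receptor in sonicated A549 lung epithelial cell extracts, 16 h at 4 °C, pH 7.2 molybdate-containing buffer. Bound radioactivity was scintillation-counted after charcoal/dextran stripping of free ligand.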

Take `CC(=C1c2ccc(Cl)cc2CCc2cc(Cl)ccc21)c1cccc(NS(C)(=O)=O)c1` [Example 777]: the pKi at human MR and on glucocorticoid receptor was > 6.30 throughout.
As to `CS(=O)(=O)Nc1cccc(/C=C2/c3ccccc3COc3ccccc32)c1` [Example 268, N-[3-(6H-Dibenzo[b,e]oxepin-11-ylidenemethyl)-phenyl]-methanesulfonamide], the pKi on human MR and at glucocorticoid receptor was > 6.30 in each case.
Consider `CS(=O)(=O)Nc1cccc(/C=C2\c3ccccc3CCc3cc(OCCN4CCOCC4)ccc32)c1` [Example 196, N-{3-[2-(2-Morpholin-4-yl-ethoxy)-10,11-dihydro-dibenzo[a,d]cyclohepten-5-ylidenemethyl]-phenyl}-methanesulfonamide], for which the pKi at human MR and on glucocorticoid receptor was > 6.30 throughout.
Consider `O=c1[nH]c2cc(/C=C3\c4ccc(F)cc4CCc4ncccc43)ccc2n1C1CC1` [Example 593], for which the pKi is > 6.30 at human MR and > 5.00 on glucocorticoid receptor.
For `CS(=O)(=O)Nc1cccc(C=C2c3ccccc3C3C(c4ccccc42)C3(F)F)c1` (stereo not drawn) [Example 255, N-[3-(8,8-Difluoro-4-ylidinemethyl-2,3,5,6-dibenzobicyclo[5.1.0]octane)-phenyl]-methanesulfonamide], in that order: > 6.30 and > 6.30.
In the case of `O=S(=O)(Nc1cccc(C=C2c3ccccc3CCc3ccccc32)c1)C(F)(F)F` [Example 281], the pKi on human MR is > 6.30; at glucocorticoid receptor it was > 5.00.
For `CS(=O)(=O)Nc1cccc(/C=C2\c3ccccc3COc3cc(Cl)ccc32)c1` [Example 665], the pKi at human MR and on glucocorticoid receptor was > 6.30 throughout.
Turning to `CS(=O)(=O)Nc1cc(F)cc(/C=C2\c3ccc(F)cc3CCc3ncccc32)c1` [Example 488, (E)-N-[3-Fluoro-5-(8-fluoro-10,11-dihydro-benzo[4,5]cyclohepta[1,2-b]pyridin-5-ylidenemethyl)-phenyl]-methanesulfonamide], the pKi at human MR and at glucocorticoid receptor was > 6.30 each time.
Consider `CC/C(=C1\c2ccc(OC)cc2COc2cc(F)ccc21)c1cccc(NS(C)(=O)=O)c1` [Example 824], for which the pKi on human MR and at glucocorticoid receptor was > 6.30 in each case.
Take `CS(=O)(=O)Nc1cccc(/C=C2\c3ccc(F)cc3CCc3nc(C#N)ccc32)c1` [Example 547]: the pKi at human MR and at glucocorticoid receptor was > 6.30 each time.
Regarding `O=c1[nH]c2cc(/C=C3\c4ccccc4COc4cc(F)ccc43)ccc2n1CCN1CCOCC1` [Example 607, 5-(3-Fluoro-6H-dibenzo[b,e]oxepin-11-ylidenemethyl)-1-(2-morpholin-4-yl-ethyl)-1,3-dihydro-benzoimidazol-2-one], the values for the pKi on human MR and at glucocorticoid receptor were > 6.30 and > 6.00, respectively.
As for `COc1ccc2c(c1)CCc1cc(C)ccc1/C2=C/c1cccc(NS(C)(=O)=O)c1` [Example 424], the pKi on human MR and at glucocorticoid receptor was > 6.30 in each case.
Turning to `Nc1ccccc1CC1c2ccccc2CCc2ccccc21` [Example 287], the pKi on human MR and at glucocorticoid receptor was > 6.30 in each case.
Consider `CS(=O)(=O)Nc1cccc(/C=C2\c3cccnc3CCc3c(Cl)cccc32)c1` [Example 567], for which the pKi at human MR is > 6.30; at glucocorticoid receptor it was > 5.00.
The like results for `Fc1ccc2c(c1)CCc1ncccc1/C2=C\c1ccccc1C(F)F` [Example 540] were, in that order, > 6.30 and > 6.30.
For the compound `CN(C)S(=O)(=O)Nc1ccc(C=C2c3ccccc3CCc3ccccc32)cc1` [Example 113, Dimethylsulfamic acid [4-(10,11-dihydro-dibenzo[a,d]cyclohepten-5-ylidenemethyl)-phenyl]-amide], the pKi at human MR and at glucocorticoid receptor was > 6.30 in each case.
Turning to `Oc1cc(C=C2c3ccccc3CCc3ccccc32)ccc1F` [Example 149, 5-(10,11-Dihydro-dibenzo[a,d]cyclohepten-5-ylidenemethyl)-2-fluoro-phenol], the pKi at human MR and at glucocorticoid receptor was > 6.30 each time.
On to `Oc1cccc(C=C2c3ccccc3CCc3c(F)cccc32)c1` [185(b), 3-(1-Fluoro-10,11-dihydro-dibenzo[a,d]cyclohepten-5-ylidenemethyl)-phenol], for which the pKi on human MR was > 6.30; on glucocorticoid receptor, > 6.00.
For `Oc1ccc(F)c(C=C2c3ccccc3CCc3ccccc32)c1` [Example 151, 3-(10,11-Dihydro-dibenzo[a,d]cyclohepten-5-ylidenemethyl)-4-fluoro-phenol], in that order: > 6.30 and > 6.00.
In the case of `COc1cc2c(cc1Br)/C(=C/c1cccc(NS(C)(=O)=O)c1)c1ccccc1CO2` [Example 668], the pKi at human MR was > 6.30; on glucocorticoid receptor it was > 6.00.
For `CS(=O)(=O)Nc1cccc(/C=C2/c3cc(F)ccc3COc3ccccc32)c1` [Example 729], the pKi at human MR and on glucocorticoid receptor was > 6.30 each time.
As to `Cc1cccc2c1CCc1ccccc1/C2=C/c1ccc(NS(C)(=O)=O)cc1` [Example 315], the pKi is > 6.30 at human MR and > 5.00 at glucocorticoid receptor.
The like results for `Oc1ccc(/C=C2/c3ccc(F)cc3CCc3ncccc32)cc1` [Example 529] were, in that order, > 6.30 and > 5.00.
As for `Oc1cccc(C=C2c3ccccc3CCc3cc(Cl)ccc32)c1` [181(a), 3-(2-Chloro-10,11-dihydro-dibenzo[a,d]cyclohepten-5-ylidenemethyl)-phenol], the negative logarithm of the Ki (pKi) on human MR and on glucocorticoid receptor was > 6.30 each time.
As for `CS(=O)(=O)Nc1cccc(/C=C2/c3ccccc3CCc3c2cccc3C(F)F)c1` [Example 381], the pKi on human MR and at glucocorticoid receptor was > 6.30 throughout.
`O=c1[nH]c2cc(/C=C3\c4ccccc4COc4cc(F)ccc43)ccc2s1` [Example 637]: the pKi on human MR and on glucocorticoid receptor was > 6.30 each time.
With `CS(=O)(=O)Nc1cccc(/C=C2\c3ccccc3CSc3cc(Cl)ccc32)c1` [Example 742], the pKi at human MR and on glucocorticoid receptor was > 6.30 each time.
With `CS(=O)(=O)Nc1cccc(C=C2c3ccccc3CCc3ccc(Cl)cc32)c1` [188(a), N-[3-(3-Chloro-10,11-dihydro-dibenzo[a,d]cyclohepten-5-ylidenemethyl)-phenyl]-methanesulfonamide], the pKi at human MR and on glucocorticoid receptor was > 6.30 in each case.
For `O=S(=O)(Nc1cccc(C=C2c3ccccc3CCc3cc(Cl)ccc32)c1)c1ccc(Cl)cc1` [Example 290], the pKi on human MR was > 6.30; at glucocorticoid receptor, > 6.00.
Turning to `O=c1[nH]c2cc(/C=C3/c4ccccc4CCc4cc(F)ccc43)ccc2s1` [Example 468], the pKi at human MR and on glucocorticoid receptor was > 6.30 throughout.
